The assay has as its target T1, β-catenin/Tcf protein-protein interaction (Homo sapiens, UniProt P35222).
T1 construct: Wild-type β-catenin (residues 138-781) were cloned into a pET-28b vector; 6×histidine (C); made in house; host or cells: E. coli BL21 DE3
T1 sequence (P35222 138-781): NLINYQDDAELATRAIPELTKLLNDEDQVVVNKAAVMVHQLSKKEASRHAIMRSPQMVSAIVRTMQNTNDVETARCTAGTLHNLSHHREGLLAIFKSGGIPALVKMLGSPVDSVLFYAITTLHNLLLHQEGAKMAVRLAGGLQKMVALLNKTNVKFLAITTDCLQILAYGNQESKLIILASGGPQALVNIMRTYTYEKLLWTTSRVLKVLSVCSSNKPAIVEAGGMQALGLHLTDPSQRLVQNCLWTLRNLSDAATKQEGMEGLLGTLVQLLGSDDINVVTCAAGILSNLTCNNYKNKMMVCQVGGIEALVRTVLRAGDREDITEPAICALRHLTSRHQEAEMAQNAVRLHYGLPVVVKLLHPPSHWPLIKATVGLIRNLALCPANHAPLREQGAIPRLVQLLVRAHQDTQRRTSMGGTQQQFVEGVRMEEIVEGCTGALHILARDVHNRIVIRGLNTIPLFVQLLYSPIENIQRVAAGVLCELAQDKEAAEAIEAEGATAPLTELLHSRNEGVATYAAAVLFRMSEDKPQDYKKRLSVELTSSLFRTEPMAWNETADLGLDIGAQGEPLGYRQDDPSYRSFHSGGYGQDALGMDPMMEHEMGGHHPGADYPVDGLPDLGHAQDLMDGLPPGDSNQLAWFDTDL
Description: FP competitive inhibition assay. Type of assay: binding. The method, then: Protein Expression and Purification. Wild-type β-catenin (residues 138-781) were cloned into a pET-28b vector carrying a C-terminal 6×histidine (Novagen) and transformed into E. coli BL21 DE3 (Novagen). Cells were cultured in LB medium with 30 μg/mL kanamycin until the OD600 was approximately 0.8, and then protein expression was induced with 400 μM of IPTG at 20° C. overnight. Cells were lysed by sonication. The proteins were purified by Ni-NTA affinity chromatography (30210, Qiagen) and dialyzed against a buffer containing 20 mM of Tris (pH 8.8), 100 mM NaCl, 10% glycerol, and 3 mM DTT. The purity of β-catenin was set to >95% as determined by SDS-PAGE gel analysis. Native non-denaturing gel electrophoresis experiment and the thermal-shift assay on an iCycler iQ Real Time Detection System (Bio-Rad) were performed for each purified protein. In the thermal shift assay, protein unfolding was evaluated through measuring the fluorescence changes of fluorescent dye Sypro Orange with purified β-catenin proteins. A temperature increment of 1° C./min was applied to monitor protein stability and detect protein aggregation. CD spectra were measured on a J-815 spectropolarimeter (Jasco). All spectra were recorded using a 1 mm path-length quartz cell. The CD spectra were averaged over three scans, and the wavelength was scanned from 260 to 190 nm in step of 1 nm. All spectra were recorded at room temperature, and the baseline was corrected by subtracting the CD spectra of a blank control containing all of the substances except protein. Samples were prepared at a concentration around 1-5 μM in a buffer of 10 mM potassium phosphate and 100 mM potassium fluoride at pH 7.0 to ensure that the transmission of light through the sample was not restricted. All proteins were stable, and no aggregation was observed under storage or assay conditions. Proteins were aliquoted and stored at −80° C. C-terminally fluorescein-labeled human Tcf4 (residues 7-51) was synthesized and HPLC purified with purity >95%. The structures were validated by LC/MS (liquid chromatography/mass spectrometry).
FP Assays. The procedures for the FP competitive inhibition assays have been described previously (Zhang, M.; Huang, Z.; Yu, B.; Ji, H. New homogeneous high-throughput assays for inhibitors of β-catenin/Tcf protein-protein interactions Anal. Biochem. 2012, 424, 57-63; Zhang, M.; Catrow, J. L.; Ji, H. High-throughput selectivity assays for small-molecule inhibitors of β-catenin/T-cell factor protein-protein interactions. ACS Med. Chem. Lett. 2013, 4, 306-311). Briefly, all of the tested compounds were prepared as 10 mM DMSO stocks. In the primary screen, the concentrations of the compounds and DMSO were set to 50 μM and 1% (v/v). Only the compounds which FP signal decreases were greater than 50% in the single-point β-catenin/Tcf assay were evaluated by counter screen. […] In the FP competitive inhibition assay, 10 nM human β-catenin and 2.5 nM of C-terminally fluorescein-labeled human Tcf4 were incubated in an assay buffer of 137 mM NaCl, 2.7 mM KCl, 10 mM Na2HPO4, 2 mM KH2PO4, 100 μg/mL of bovine γ-globulin, and 0.01% Triton-X100 for 15 min at 4° C. Bovine γ-globulin and Triton-X100 were included in the assay buffer to decrease the likelihood of compound acting by aggregate formation. Different concentrations of the tested compounds in the assay buffer were added to each test plate to make a final volume of 100 μL. Each assay plate was covered black and gently mixed on an orbital shaker at 4° C. for 1.5 h to reach equilibrium before the polarization values were read. The IC50 value was determined by nonlinear least-square analysis of GraphPad Prism 5.0. The Ki values were derived (Nikolovska-Coleska, Z.; Wang, R.; Fang, X.; Pan, H.; Tomita, Y.; Li, P.; Roller, P. P.; Krajewski, K.; Saito, N. G.; Stuckey, J. A.; Wang, S. Development and optimization of a binding assay for the XIAP BIR3 domain using fluorescence polarization. Anal. Biochem. 2004, 332, 261-273). […]

Where [1] appears, read: Assay 1, mean ± SD (n = 3), read-out: Ki ± SD, Assay 1.
Setting [2] is: Assay 2, mean ± SD (n = 3), read-out: Ki ± SD, Assay 2.

Like-named read-outs stand apart in the source and are kept apart here.

As to `COc1ccc2sc(CCc3c(CCc4ccc(Cl)cc4)c4cc(C(=O)NCCc5ccc(Cl)cc5)ccc4n3CCc3nn[nH]n3)nc2c1` [Compound 49, 1-(2-(2H-tetrazol-5-yl)ethyl)-N,3-bis(4-chlorophenethyl)-2-(2-(5-methoxybenzo[d]thiazol-2-yl)ethyl)-1H-indole-5-carboxamide], the Ki by setting is: under setting [1], 0.75 ± 0.23 µM; under setting [2], 3.2 ± 0.24 µM.

As to `COc1ccc2sc(CCc3c(CCc4ccc(Cl)cc4)c4cc(C(=O)NCCOc5ccc(Cl)cc5)ccc4n3CCc3nn[nH]n3)nc2c1` [Compound 50, 1-(2-(2H-tetrazol-5-yl)ethyl)-3-(4-chlorophenethyl)-N-(2-(4-chlorophenoxy)ethyl)-2-(2-(5-methoxybenzo[d]thiazol-2-yl)ethyl)-1H-indole-5-carboxamide], under setting [1], the Ki amounted to 3.2 ± 0.28 µM.

Take `COc1ccc2sc(CCc3c(CCc4ccc(Cl)cc4)c4cc(C(=O)NCc5ccccc5Cl)ccc4n3CCc3nn[nH]n3)nc2c1` [Compound 51, 1-(2-(2H-tetrazol-5-yl)ethyl)-N-(2-chlorobenzyl)-3-(4-chlorophenethyl)-2-(2-(5-methoxybenzo[d]thiazol-2-yl)ethyl)-1H-indole-5-carboxamide]: the Ki stood at 3.6 ± 0.6 µM under setting [1] and 4.8 ± 0.84 µM under setting [2].

Turning to `COc1ccc2sc(CCc3c(CCc4ccc(Cl)cc4)c4cc(C(=O)NCc5ccccc5Br)ccc4n3CCc3nn[nH]n3)nc2c1` [Compound 52, 1-(2-(2H-tetrazol-5-yl)ethyl)-N-(2-bromobenzyl)-3-(4-chlorophenethyl)-2-(2-(5-methoxybenzo[d]thiazol-2-yl)ethyl)-1H-indole-5-carboxamide], the Ki under setting [1] was 1.5 ± 0.17 µM and the inhibition constant (Ki) under setting [2] came out at 2.6 ± 0.59 µM.

With `COc1ccc2sc(CCc3c(CCc4ccc(Cl)cc4)c4cc(C(=O)NCc5cccc(Cl)c5)ccc4n3CCc3nn[nH]n3)nc2c1` [Compound 53, 1-(2-(2H-tetrazol-5-yl)ethyl)-N-(3-chlorobenzyl)-3-(4-chlorophenethyl)-2-(2-(5-methoxybenzo[d]thiazol-2-yl)ethyl)-1H-indole-5-carboxamide], the Ki came to 2.7 ± 0.34 µM under setting [1] and 6.1 ± 1.2 µM under setting [2].

Take `COc1ccc2sc(CCc3c(CCc4ccc(Cl)cc4)c4cc(C(=O)NCc5ccsc5)ccc4n3CCc3nn[nH]n3)nc2c1` [Compound 59, 1-(2-(2H-tetrazol-5-yl)ethyl)-3-(4-chlorophenethyl)-2-(2-(5-methoxybenzo[d]thiazol-2-yl)ethyl)-N-(thiophen-3-ylmethyl)-1H-indole-5-carboxamide]: the Ki under setting [1] was 0.83 ± 0.048 µM and the inhibition constant (Ki) under setting [2] was 3.7 ± 0.23 µM.

Consider `COc1ccc2sc(CCc3c(CCc4ccc(Cl)cc4)c4cc(C(=O)NCC5CCCCC5)ccc4n3CCc3nn[nH]n3)nc2c1` [Compound 63, 1-(2-(2H-tetrazol-5-yl)ethyl)-3-(4-chlorophenethyl)-N-(cyclohexylmethyl)-2-(2-(5-methoxybenzo[d]thiazol-2-yl)ethyl)-1H-indole-5-carboxamide], for which the inhibition constant (Ki) by setting is: under setting [1], 1.4 ± 0.2 µM; under setting [2], 4.3 ± 0.39 µM.

For `COc1ccc2sc(CCc3c(CCc4ccc(Cl)cc4)c4cc(C(=O)NCC5CCOCC5)ccc4n3CCc3nn[nH]n3)nc2c1` [Compound 64, 1-(2-(2H-tetrazol-5-yl)ethyl)-3-(4-chlorophenethyl)-2-(2-(5-methoxybenzo[d]thiazol-2-yl)ethyl)-N-((tetrahydro-2H-pyran-4-yl)methyl)-1H-indole-5-carboxamide], the Ki reads like this: under setting [1], 5.4 ± 0.76 µM; under setting [2], 9.5 ± 1.5 µM.

`COc1ccc2sc(CCc3c(CCc4ccc(Cl)cc4)c4cc(C(=O)NCC5CCOC5)ccc4n3CCc3nn[nH]n3)nc2c1` (stereo not shown) [Compound 65, 1-(2-(2H-tetrazol-5-yl)ethyl)-3-(4-chlorophenethyl)-2-(2-(5-methoxybenzo[d]thiazol-2-yl)ethyl)-N-((tetrahydrofuran-3-yl)methyl)-1H-indole-5-carboxamide]: the inhibitory constant (Ki) under setting [1] turned out to be 6.1 ± 0.76 µM.

The values are drawn from patent US11530186B2, “Inhibitors for the β-catenin / T-cell factor protein-protein interaction” (H. LEE MOFFITT CANCER CENTER AND RESEARCH INSTITUTE, INC., priority 2018, dated 2022).
